Read-outs that look alike come from different tables or passages of the source.
Tested on: BJAB (malignant human B-cell-line)
Test: BJAB cell proliferation
Format: cell-based
Set-up: scale not given here
From the text: In certain embodiments, the therapeutic compound is one of the compounds of the compound table below. […] In certain embodiments, the therapeutic compound is a compound having an activity as “A,” “B” or “C” in the table below. In certain embodiments, the therapeutic compound is a compound having an activity as “A” or “B” in the table below. In certain embodiments, the therapeutic compound is a compound having an activity as “A” in the table below.
In certain embodiments, the therapeutic compound is one of the compounds of the compound table below, optionally provided as a pharmaceutically-acceptable salt or N-oxide, and/or a solvate or hydrate. […] In certain embodiments, the therapeutic compound is a compound having an activity as “A,” “B” or “C” in the table below. In certain embodiments, the therapeutic compound is a compound having an activity as “A” or “B” in the table below. In certain embodiments, the therapeutic compound is a compound having an activity as “A” in the table below.

[1] = BJAB cell proliferation, read-out: EC50
[2] = Homo sapiens, BJAB cell proliferation, read-out: EC50
[3] = BJAB (malignant human B-cell-line) cell proliferation, EC50, read-out: BJAB

Compound	EC50 [3] [µM]	also measured
Cc1nn(-c2nc(-c3ccc(Cl)c(Cl)c3)c(SC(C)C)s2)c(CO)c1-c1ccccc1 [Compound A88, (1-(4-(3,4-dichlorophenyl)-5-(isopropylthio)thiazol-2-yl)-3-methyl-4-phenyl-1H-pyrazol-5-yl)MeOH]		EC50 [1]: > 25 µM
Cc1nn(-c2nc(-c3ccc(Cl)c(Cl)c3)c(SC(C)C)s2)c(C(=O)O)c1Cc1ccccc1NS(=O)(=O)N(C)C [Compound A122, 1-(4-(3,4-dichlorophenyl)-5-(isopropylthio)thiazol-2-yl)-4-(2-(N,N-dimethylsulfamoylamino)benzyl)-3-methyl-1H-pyrazole-5-carboxylic acid]		EC50 [1]: 10 to 25 µM
Cc1nn(-c2nc(-c3ccc(Cl)c(Cl)c3)c(SC(C)C)s2)c(C(=O)O)c1-c1cccc(F)c1 [Compound A151, 1-(4-(3,4-dichlorophenyl)-5-(isopropylthio)thiazol-2-yl)-4-(3-fluorophenyl)-3-methyl-1H-pyrazole-5-carboxylic acid]		EC50 (BJAB cell proliferation): A, B
Cc1nn(-c2nc(-c3ccc(C#N)cc3)c(SC(C)C)s2)c(C(=O)O)c1-c1cccc(F)c1 [Compound A213, 1-(4-(4-cyanophenyl)-5-(isopropylthio)thiazol-2-yl)-4-(3-fluorophenyl)-3-methyl-1H-pyrazole-5-carboxylic acid]		EC50 (BJAB cell proliferation): C-
COc1cc(Cl)cc(-c2c(C)nn(-c3nc(-c4ccc(C(F)(F)F)cc4)c(SC(C)C)s3)c2C(=O)O)c1 [Compound A222, 4-(3-chloro-5-methoxyphenyl)-1-(5-(isopropylthio)-4-(4-(trifluoromethyl)phenyl)thiazol-2-yl)-3-methyl-1H-pyrazole-5-carboxylic acid]		EC50 [2]: < 1 µM
Cc1nn(-c2nc(-c3ccc(OC(F)(F)F)cc3)c(SC(C)C)s2)c(C(=O)O)c1-c1cccc(F)c1 [Compound A223, 4-(3-fluorophenyl)-1-(5-(isopropylthio)-4-(4-(trifluoromethoxy)phenyl)thiazol-2-yl)-3-methyl-1H-pyrazole-5-carboxylic acid]		EC50 [2]: 1 to 5 µM
Cc1cc(C(=O)O)n(-c2nc(-c3ccc(Cl)cc3OC3COC3)c(SC(C)C)s2)n1 [Compound B1, 1-(4-(4-chloro-2-(oxetan-3-yloxy)phenyl)-5-(isopropylthio)thiazol-2-yl)-3-methyl-1H-pyrazole-5-carboxylic acid]	> 40	
Cc1cc(C(=O)O)n(-c2nc(-c3ccc(Cl)c(OC4COC4)c3)c(SC(C)C)s2)n1 [Compound B2, 1-(4-(4-chloro-3-(oxetan-3-yloxy)phenyl)-5-(isopropylthio)thiazol-2-yl)-3-methyl-1H-pyrazole-5-carboxylic acid]	> 40	
Cc1nnc(-c2ccc(-c3nc(-n4nc(C)c(-c5cccc(F)c5)c4C(=O)O)sc3SC(C)C)cc2)o1 [Compound B3, 4-(3-fluorophenyl)-1-(5-(isopropylthio)-4-(4-(5-methyl-1,3,4-oxadiazol-2-yl)phenyl)thiazol-2-yl)-3-methyl-1H-pyrazole-5-carboxylic acid]	25 to 50	
Cc1nn(-c2nc(C3=CCC(C)CC3)c(SC(C)C)s2)c(C(=O)O)c1-c1cccc(F)c1 (centres unmarked) [Compound B4, 4-(3-fluorophenyl)-1-(5-(isopropylthio)-4-(4-methylcyclohex-1-en-1-yl)thiazol-2-yl)-3-methyl-1H-pyrazole-5-carboxylic acid]	1 to 5	
Cc1nn(-c2nc(C3=CCC(C)(C)CC3)c(SC(C)C)s2)c(C(=O)O)c1-c1cccc(F)c1 [Compound B6, 1-(4-(4,4-dimethylcyclohex-1-en-1-yl)-5-(isopropylthio)thiazol-2-yl)-4-(3-fluorophenyl)-3-methyl-1H-pyrazole-5-carboxylic acid]	< 1	
Cc1nn(-c2nc(C3=CCC4(CC3)OCCO4)c(SC(C)C)s2)c(C(=O)O)c1-c1cccc(F)c1 [Compound B7, 4-(3-fluorophenyl)-1-(5-(isopropylthio)-4-(1,4-dioxaspiro[4.5]dec-7-en-8-yl)thiazol-2-yl)-3-methyl-1H-pyrazole-5-carboxylic acid]	25 to 50	
Cc1nn(-c2nc(-c3ccc(Cl)c(C(=O)N4CCOCC4)c3)c(SC(C)C)s2)c(C(=O)O)c1-c1cccc(F)c1 [Compound B8, 1-(4-(4-chloro-3-(morpholine-4-carbonyl)phenyl)-5-(isopropylthio)thiazol-2-yl)-4-(3-fluorophenyl)-3-methyl-1H-pyrazole-5-carboxylic acid]	> 40	
Cc1cc(-c2cn(-c3nc(-c4ccc(Cl)c(Cl)c4)c(SC(C)C)s3)nc2C)cc(C)n1 [Compound B9, 4-(3,4-dichlorophenyl)-2-(4-(2,6-dimethylpyridin-4-yl)-3-methyl-1H-pyrazol-1-yl)-5-(isopropylthio)thiazole]		BJAB (BJAB (malignant human B-cell-line) cell proliferation, EC50): A, C, L
Cc1nn(-c2nc(-c3ccc(C(F)(F)F)cc3)c(SC(C)C)s2)c(C)c1-c1cccc(F)c1 [Compound B10, 2-(4-(3-fluorophenyl)-3,5-dimethyl-1H-pyrazol-1-yl)-5-(isopropylthio)-4-(4-(trifluoromethyl)phenyl)thiazole]	> 40	
Cc1nn(-c2nc(N3CCCCC3)c(SC(C)C)s2)c(C(=O)O)c1-c1cccc(F)c1 [Compound B11, 4-(3-fluorophenyl)-1-(5-(isopropylthio)-4-(piperidin-1-yl)thiazol-2-yl)-3-methyl-1H-pyrazole-5-carboxylic acid]	10 to 25	
Cc1nn(-c2nc(N3CCC(C(F)(F)F)CC3)c(SC(C)C)s2)c(C(=O)O)c1-c1cccc(F)c1 [Compound B12, 4-(3-fluorophenyl)-1-(5-(isopropylthio)-4-(4-(trifluoromethyl)piperidin-1-yl)thiazol-2-yl)-3-methyl-1H-pyrazole-5-carboxylic acid]	< 1	
COc1nn(-c2nc(-c3ccc(C(F)(F)F)cc3)c(SC(C)C)s2)c(C(=O)O)c1-c1cccc(F)c1 [Compound B13, 4-(3-fluorophenyl)-1-(5-(isopropylthio)-4-(4-(trifluoromethyl)phenyl)thiazol-2-yl)-3-methoxy-1H-pyrazole-5-carboxylic acid]	1 to 5	
Cc1nn(-c2nc(N3CCOCC3)c(SC(C)C)s2)c(C(=O)O)c1-c1cccc(F)c1 [Compound B14, 4-(3-fluorophenyl)-1-(5-(isopropylthio)-4-morpholinothiazol-2-yl)-3-methyl-1H-pyrazole-5-carboxylic acid]	> 40	
CC(C)Sc1sc(-n2nc(O)c(-c3cccc(F)c3)c2C(=O)O)nc1-c1ccc(C(F)(F)F)cc1 [Compound B15, 4-(3-fluorophenyl)-3-hydroxy-1-(5-(isopropylthio)-4-(4-(trifluoromethyl)phenyl)thiazol-2-yl)-1H-pyrazole-5-carboxylic acid]	> 20	
Cc1nn(-c2nc(-c3ccc(Cl)c(Cl)c3)n(CC(C)C)n2)c(C(=O)O)c1-c1cccc(F)c1 [Compound B16, 1-(5-(3,4-dichlorophenyl)-1-isobutyl-1H-1,2,4-triazol-3-yl)-4-(3-fluorophenyl)-3-methyl-1H-pyrazole-5-carboxylic acid]	> 20	
Cc1nn(-c2nc(-c3ccc(Cl)c(Cl)c3)nn2CC(C)C)c(C(=O)O)c1-c1cccc(F)c1 [Compound B17, 1-(3-(3,4-dichlorophenyl)-1-isobutyl-1H-1,2,4-triazol-5-yl)-4-(3-fluorophenyl)-3-methyl-1H-pyrazole-5-carboxylic acid]	> 20	
Cc1nn(-c2nc(N3CCC(F)(F)CC3)c(SC(C)C)s2)c(C(=O)O)c1-c1cccc(F)c1 [Compound B18, 1-(4-(4,4-difluoropiperidin-1-yl)-5-(isopropylthio)thiazol-2-yl)-4-(3-fluorophenyl)-3-methyl-1H-pyrazole-5-carboxylic acid]	1 to 5	
COC(=O)c1c(-c2cccc(F)c2)c(C)nn1-c1nc(C2=CCC(C(F)(F)F)CC2)c(SC(C)C)s1 (centres unmarked) [Compound B20, methyl 4-(3-fluorophenyl)-1-(5-(isopropylthio)-4-(4-(trifluoromethyl)cyclohex-1-en-1-yl)thiazol-2-yl)-3-methyl-1H-pyrazole-5-carboxylate]	< 1	
Cc1nn(-c2nc(C3CCC(C(F)(F)F)CC3)cs2)c(C(=O)O)c1-c1cccc(F)c1 (centres unmarked) [Compound B21, 4-(3-fluorophenyl)-3-methyl-1-(4-(4-(trifluoromethyl)cyclohexyl)thiazol-2-yl)-1H-pyrazole-5-carboxylic acid]	> 20	
Cc1nn(-c2nc(-c3ccc(C(F)(F)F)cc3)c(CC(C)C)s2)c(C(=O)O)c1-c1cccc(F)c1 [Compound B22, 4-(3-fluorophenyl)-1-(5-isobutyl-4-(4-(trifluoromethyl)phenyl)thiazol-2-yl)-3-methyl-1H-pyrazole-5-carboxylic acid]	< 1	
Cc1nn(-c2nc(N3CCN(CC(F)(F)F)CC3)c(SC(C)C)s2)c(C(=O)O)c1-c1cccc(F)c1 [Compound B23, 4-(3-fluorophenyl)-1-(5-(isopropylthio)-4-(4-(2,2,2-trifluoroethyl)piperazin-1-yl)thiazol-2-yl)-3-methyl-1H-pyrazole-5-carboxylic acid]	5 to 10	
Cc1nn(-c2nc(N3CCC(C#N)CC3)c(SC(C)C)s2)c(C(=O)O)c1-c1cccc(F)c1 [Compound B24, 1-(4-(4-cyanopiperidin-1-yl)-5-(isopropylthio)thiazol-2-yl)-4-(3-fluorophenyl)-3-methyl-1H-pyrazole-5-carboxylic acid]	10 to 25	
Cc1nn(-c2nc(N3CCN(C4CC4)CC3)c(SC(C)C)s2)c(C(=O)O)c1-c1cccc(F)c1 [Compound B25, 1-(4-(4-cyclopropylpiperazin-1-yl)-5-(isopropylthio)thiazol-2-yl)-4-(3-fluorophenyl)-3-methyl-1H-pyrazole-5-carboxylic acid]	5 to 10	
